Source: article PMC3324139 (2012)

Experiments:
[1] = system: 76 mer-DNA aptamer (DNA, aptamer) CGTACGGAATTCGCTAGCCCCCCGGCAGGCCACGGCTTGGGTTGGTCCCACTGCGCGTGGATCCGAGCTCCACGTG; assay: competitive enzyme-linked aptamer assay (ELAA); conditions: sodium phosphate 10 mM, no added NaCl, no Mg2+; pH 7.2, RT; TC-HRP displaced; relative to TC = 100% at 50% B/B0; apparent
[2] = system: 57 mer-RNA aptamer (RNA, aptamer) GAGCCUAAAACAUACCAGAGAAAUCUGGAGAGGUGAAGAAUACGACCACCUAGGCUC; assay: competitive enzyme-linked aptamer assay (ELAA); conditions: sodium phosphate 10 mM, no added NaCl, no Mg2+; pH 7.2, RT; TC-HRP displaced; relative to TC = 100% at 50% B/B0; apparent

Cross-reactivity [1]: 129.7%
Cross-reactivity [2]: 35.3%
Compound: CN(C)[C@@H]1C(=O)C(C(N)=O)=C(O)[C@@]2(O)C(=O)C3=C(O)c4c(O)cccc4[C@@](C)(O)[C@H]3[C@H](O)[C@@H]12
